Key:
Format in all cases: in vivo
Details in all cases: 1000 g/h, evaluated after 13 days, five point scale
Lolium perenne (LOLPE) [1] = assay: Post-emergence glasshouse herbicide test, Lolium perenne
Solanum nigrum (SOLNI) [2] = assay: Post-emergence glasshouse herbicide test, Solanum nigrum
Summary of the method: (§1)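 Score out of five (1=0-19% through 5=80-100% damage), read 13 days post-application. Plants in standard soil received 1000 g/h in acetone/water with 0.5% Tween 20, pre-emergence at day 1 or post-emergence at day 8.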

[3] = system: Amaranthus retoflexus (AMARE); assay: Post-emergence glasshouse herbicide test, Amaranthus retoflexus
Setaria faberi (SETFA) [4] = assay: Post-emergence glasshouse herbicide test, Setaria faberi
[5] = system: Echinochloa crus-galli (ECHCG); assay: Post-emergence glasshouse herbicide test, Echinochloa crus-galli
[6] = system: Ipomoea hederacea (IPOHE); assay: Post-emergence glasshouse herbicide test, Ipomoea hederacea
Lolium perenne (LOLPE) [7] = assay: Pre-emergence glasshouse herbicide test, Lolium perenne
Solanum nigrum (SOLNI) [8] = assay: Pre-emergence glasshouse herbicide test, Solanum nigrum
Summary of the method: as §1

[9] = system: Amaranthus retoflexus (AMARE); assay: Pre-emergence glasshouse herbicide test, Amaranthus retoflexus
Setaria faberi (SETFA) [10] = assay: Pre-emergence glasshouse herbicide test, Setaria faberi
[11] = system: Echinochloa crus-galli (ECHCG); assay: Pre-emergence glasshouse herbicide test, Echinochloa crus-galli
[12] = system: Ipomoea hederacea (IPOHE); assay: Pre-emergence glasshouse herbicide test, Ipomoea hederacea

Structure (SMILES): CCn1nnnc1NC(=O)c1nn2cnn(-c3ccc(C)cc3C)c2nc1=O [Compound 1.045]
- percentage damage caused to the plant, POST Application LOLPE (Lolium perenne (LOLPE) [1]): 5 (5=80-100%)
- percentage damage caused to the plant, POST Application SOLNI (Solanum nigrum (SOLNI) [2]): 5 (5=80-100%)
- percentage damage caused to the plant, POST Application AMARE [3]: 5 (5=80-100%)
- percentage damage caused to the plant, POST Application SETFA (Setaria faberi (SETFA) [4]): 5 (5=80-100%)
- percentage damage caused to the plant, POST Application ECHCG [5]: 5 (5=80-100%)
- percentage damage caused to the plant, POST Application IPOHE [6]: 5 (5=80-100%)
- percentage damage caused to the plant, PRE Application LOLPE (Lolium perenne (LOLPE) [7]): 5 (5=80-100%)
- percentage damage caused to the plant, PRE Application SOLNI (Solanum nigrum (SOLNI) [8]): 5 (5=80-100%)
- percentage damage caused to the plant, PRE Application AMARE [9]: 5 (5=80-100%)
- percentage damage caused to the plant, PRE Application SETFA (Setaria faberi (SETFA) [10]): 4 (4=60-79%)
- percentage damage caused to the plant, PRE Application ECHCG [11]: 5 (5=80-100%)
- percentage damage caused to the plant, PRE Application IPOHE [12]: 5 (5=80-100%)

Structure (SMILES): CCCn1ncn2nc(C(=O)Nc3nnnn3C)c(=O)nc12 [Compound 1.007]
- percentage damage caused to the plant, POST Application LOLPE (Lolium perenne (LOLPE) [1]): 3 (3=40-59%)
- percentage damage caused to the plant, POST Application SOLNI (Solanum nigrum (SOLNI) [2]): 5 (5=80-100%)
- percentage damage caused to the plant, POST Application AMARE [3]: 5 (5=80-100%)
- percentage damage caused to the plant, POST Application SETFA (Setaria faberi (SETFA) [4]): 5 (5=80-100%)
- percentage damage caused to the plant, POST Application ECHCG [5]: 5 (5=80-100%)
- percentage damage caused to the plant, POST Application IPOHE [6]: 5 (5=80-100%)
- percentage damage caused to the plant, PRE Application LOLPE (Lolium perenne (LOLPE) [7]): 4 (4=60-79%)
- percentage damage caused to the plant, PRE Application SOLNI (Solanum nigrum (SOLNI) [8]): 5 (5=80-100%)
- percentage damage caused to the plant, PRE Application AMARE [9]: 5 (5=80-100%)
- percentage damage caused to the plant, PRE Application SETFA (Setaria faberi (SETFA) [10]): 5 (5=80-100%)
- percentage damage caused to the plant, PRE Application ECHCG [11]: 5 (5=80-100%)
- percentage damage caused to the plant, PRE Application IPOHE [12]: 4 (4=60-79%)

Structure (SMILES): O=C(Nc1nnnn1-c1ccccc1)c1nn2cnn(-c3ccccc3)c2nc1=O [Compound 1.027]
- percentage damage caused to the plant, POST Application LOLPE (Lolium perenne (LOLPE) [1]): 2 (2=20-39%)
- percentage damage caused to the plant, POST Application SOLNI (Solanum nigrum (SOLNI) [2]): 5 (5=80-100%)
- percentage damage caused to the plant, POST Application AMARE [3]: 4 (4=60-79%)
- percentage damage caused to the plant, POST Application SETFA (Setaria faberi (SETFA) [4]): 2 (2=20-39%)
- percentage damage caused to the plant, POST Application ECHCG [5]: 1 (1=0-19%)
- percentage damage caused to the plant, POST Application IPOHE [6]: 3 (3=40-59%)
- percentage damage caused to the plant, PRE Application LOLPE (Lolium perenne (LOLPE) [7]): 1 (1=0-19%)
- percentage damage caused to the plant, PRE Application SOLNI (Solanum nigrum (SOLNI) [8]): 5 (5=80-100%)
- percentage damage caused to the plant, PRE Application AMARE [9]: 5 (5=80-100%)
- percentage damage caused to the plant, PRE Application SETFA (Setaria faberi (SETFA) [10]): 2 (2=20-39%)
- percentage damage caused to the plant, PRE Application ECHCG [11]: 1 (1=0-19%)
- percentage damage caused to the plant, PRE Application IPOHE [12]: 4 (4=60-79%)

Structure (SMILES): Cc1ccccc1-n1ncn2nc(C(=O)Nc3nnnn3C)c(=O)nc12 [Compound 1.030]
- percentage damage caused to the plant, POST Application LOLPE (Lolium perenne (LOLPE) [1]): 4 (4=60-79%)
- percentage damage caused to the plant, POST Application SOLNI (Solanum nigrum (SOLNI) [2]): 5 (5=80-100%)
- percentage damage caused to the plant, POST Application AMARE [3]: 5 (5=80-100%)
- percentage damage caused to the plant, POST Application SETFA (Setaria faberi (SETFA) [4]): 5 (5=80-100%)
- percentage damage caused to the plant, POST Application ECHCG [5]: 5 (5=80-100%)
- percentage damage caused to the plant, POST Application IPOHE [6]: 5 (5=80-100%)
- percentage damage caused to the plant, PRE Application LOLPE (Lolium perenne (LOLPE) [7]): 4 (4=60-79%)
- percentage damage caused to the plant, PRE Application SOLNI (Solanum nigrum (SOLNI) [8]): 5 (5=80-100%)
- percentage damage caused to the plant, PRE Application AMARE [9]: 5 (5=80-100%)
- percentage damage caused to the plant, PRE Application SETFA (Setaria faberi (SETFA) [10]): 5 (5=80-100%)
- percentage damage caused to the plant, PRE Application ECHCG [11]: 5 (5=80-100%)
- percentage damage caused to the plant, PRE Application IPOHE [12]: 5 (5=80-100%)

Structure (SMILES): Cn1nnnc1NC(=O)c1nn2cnn(-c3ccccc3)c2nc1=O [Compound 1.001]
- percentage damage caused to the plant, POST Application LOLPE (Lolium perenne (LOLPE) [1]): 3 (3=40-59%)
- percentage damage caused to the plant, POST Application SOLNI (Solanum nigrum (SOLNI) [2]): 5 (5=80-100%)
- percentage damage caused to the plant, POST Application AMARE [3]: 5 (5=80-100%)
- percentage damage caused to the plant, POST Application SETFA (Setaria faberi (SETFA) [4]): 5 (5=80-100%)
- percentage damage caused to the plant, POST Application ECHCG [5]: 5 (5=80-100%)
- percentage damage caused to the plant, POST Application IPOHE [6]: 5 (5=80-100%)
- percentage damage caused to the plant, PRE Application LOLPE (Lolium perenne (LOLPE) [7]): 3 (3=40-59%)
- percentage damage caused to the plant, PRE Application SOLNI (Solanum nigrum (SOLNI) [8]): 5 (5=80-100%)
- percentage damage caused to the plant, PRE Application AMARE [9]: 5 (5=80-100%)
- percentage damage caused to the plant, PRE Application SETFA (Setaria faberi (SETFA) [10]): 5 (5=80-100%)
- percentage damage caused to the plant, PRE Application ECHCG [11]: 5 (5=80-100%)
- percentage damage caused to the plant, PRE Application IPOHE [12]: 4 (4=60-79%)
